Assay results: PubChem BioAssay (NCI)
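Dose response: 5 concentrations. Exposure: 48 h. Format: 96-well plates. Endpoint: linear interpolation; highest concentration if not reached. At the TGI there is no net growth.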

How the values were obtained:
Assay in all cases: NCI tumour cell line growth inhibition, 48 h
786-0 renal = test system: 786-0 renal
A549 NSCLC = test system: A549 NSCLC
ACHN renal = test system: ACHN renal
BT-549 breast = test system: BT-549 breast
CAKI-1 renal = test system: CAKI-1 renal
CCRF-CEM leukemia = test system: CCRF-CEM leukemia
COLO 205 colon = test system: COLO 205 colon
DU-145 prostate = test system: DU-145 prostate
EKVX NSCLC = test system: EKVX NSCLC
HCC-2998 colon = test system: HCC-2998 colon
HCT-116 colon = test system: HCT-116 colon
HCT-15 colon = test system: HCT-15 colon
HL-60(TB) leukemia = test system: HL-60(TB) leukemia
HOP-62 NSCLC = test system: HOP-62 NSCLC
HOP-92 NSCLC = test system: HOP-92 NSCLC
HS 578T breast = test system: HS 578T breast
HT29 colon = test system: HT29 colon
IGROV1 ovarian = test system: IGROV1 ovarian
K-562 leukemia = test system: K-562 leukemia
KM12 colon = test system: KM12 colon
LOX IMVI melanoma = test system: LOX IMVI melanoma
M14 melanoma = test system: M14 melanoma
MALME-3M melanoma = test system: MALME-3M melanoma
MCF7 breast = test system: MCF7 breast
MDA-MB-231 breast = test system: MDA-MB-231 breast
MDA-MB-435 = test system: MDA-MB-435
MDA-N = test system: MDA-N
MOLT-4 leukemia = test system: MOLT-4 leukemia
NCI-H226 lung = test system: NCI-H226 lung
NCI-H23 lung = test system: NCI-H23 lung
NCI-H460 lung = test system: NCI-H460 lung
NCI-H522 lung = test system: NCI-H522 lung
NCI/ADR-RES ovarian = test system: NCI/ADR-RES ovarian
OVCAR-3 ovarian = test system: OVCAR-3 ovarian
OVCAR-4 ovarian = test system: OVCAR-4 ovarian
OVCAR-5 ovarian = test system: OVCAR-5 ovarian
OVCAR-8 ovarian = test system: OVCAR-8 ovarian
PC-3 prostate = test system: PC-3 prostate
RPMI-8226 leukemia = test system: RPMI-8226 leukemia
RXF 393 renal = test system: RXF 393 renal
SF-268 CNS = test system: SF-268 CNS
SF-295 CNS = test system: SF-295 CNS
SF-539 CNS = test system: SF-539 CNS
SK-MEL-2 melanoma = test system: SK-MEL-2 melanoma
SK-MEL-28 melanoma = test system: SK-MEL-28 melanoma
SK-MEL-5 melanoma = test system: SK-MEL-5 melanoma
SK-OV-3 ovarian = test system: SK-OV-3 ovarian
SN12C renal = test system: SN12C renal
SNB-19 CNS = test system: SNB-19 CNS
SNB-75 CNS = test system: SNB-75 CNS
SR leukemia = test system: SR leukemia
SW-620 colon = test system: SW-620 colon
T-47D breast = test system: T-47D breast
TK-10 renal = test system: TK-10 renal
U251 CNS = test system: U251 CNS
UACC-257 melanoma = test system: UACC-257 melanoma
UACC-62 melanoma = test system: UACC-62 melanoma
UO-31 renal = test system: UO-31 renal
A498 renal = test system: A498 renal

Compound `COc1ccc([C@H]2CC(=O)C[C@H](c3ccc(OC)cc3OC)C23C(=O)c2ccccc2C3=O)c(OC)c1` has a TGI (786-0 renal) of over 100 µM, a TGI (A549 NSCLC) of over 100 µM and a TGI (ACHN renal) of over 100 µM. It also gave a TGI (BT-549 breast) of over 100 µM, a TGI (CAKI-1 renal) of over 100 µM and a TGI (CCRF-CEM leukemia) of over 100 µM. The TGI (COLO 205 colon) was over 100 µM, the TGI (DU-145 prostate) was over 100 µM and the TGI (EKVX NSCLC) was over 100 µM. For the same compound, the TGI (HCC-2998 colon) was over 100 µM, the TGI (HCT-116 colon) was over 100 µM and the TGI (HCT-15 colon) was over 100 µM. For the same compound, the TGI (HL-60(TB) leukemia) was over 100 µM, the TGI (HOP-62 NSCLC) was over 100 µM and the TGI (HOP-92 NSCLC) was over 100 µM. It also gave a TGI (HS 578T breast) of over 100 µM, a TGI (HT29 colon) of over 100 µM and a TGI (IGROV1 ovarian) of over 100 µM. It also gave a TGI (K-562 leukemia) of over 100 µM, a TGI (KM12 colon) of over 100 µM and a TGI (LOX IMVI melanoma) of over 100 µM. For the same compound, the TGI (M14 melanoma) was over 100 µM, the TGI (MALME-3M melanoma) was over 100 µM and the TGI (MCF7 breast) was over 100 µM. It also gave a TGI (MDA-MB-231 breast) of over 100 µM, a TGI (MDA-MB-435) of over 100 µM and a TGI (MDA-N) of over 100 µM. For the same compound, the TGI (MOLT-4 leukemia) was over 100 µM, the TGI (NCI-H226 lung) was over 100 µM and the TGI (NCI-H23 lung) was over 100 µM. For the same compound, the TGI (NCI-H460 lung) was over 100 µM, the TGI (NCI-H522 lung) was over 100 µM and the TGI (NCI/ADR-RES ovarian) was over 100 µM. It also gave a TGI (OVCAR-3 ovarian) of over 100 µM, a TGI (OVCAR-4 ovarian) of over 100 µM and a TGI (OVCAR-5 ovarian) of over 100 µM. It also gave a TGI (OVCAR-8 ovarian) of over 100 µM, a TGI (PC-3 prostate) of over 100 µM and a TGI (RPMI-8226 leukemia) of over 100 µM. It also gave a TGI (RXF 393 renal) of over 100 µM, a TGI (SF-268 CNS) of over 100 µM and a TGI (SF-295 CNS) of over 100 µM. For the same compound, the TGI (SF-539 CNS) was over 100 µM, the TGI (SK-MEL-2 melanoma) was over 100 µM and the TGI (SK-MEL-28 melanoma) was over 100 µM. It also gave a TGI (SK-MEL-5 melanoma) of over 100 µM, a TGI (SK-OV-3 ovarian) of over 100 µM and a TGI (SN12C renal) of over 100 µM. It also gave a TGI (SNB-19 CNS) of over 100 µM, a TGI (SNB-75 CNS) of over 100 µM and a TGI (SR leukemia) of over 100 µM. It also gave a TGI (SW-620 colon) of over 100 µM, a TGI (T-47D breast) of over 100 µM and a TGI (TK-10 renal) of over 100 µM. The TGI (U251 CNS) was over 100 µM, the TGI (UACC-257 melanoma) was over 100 µM and the TGI (UACC-62 melanoma) was over 100 µM. The TGI (UO-31 renal) was over 100 µM.
`CC1(c2ccccc2)CCN(C2CC2)CO1` (stereo unspecified) was tested, and the TGI (786-0 renal) was 29.9 µM, the TGI (A549 NSCLC) was over 100 µM and the TGI (ACHN renal) was 31.7 µM. It also gave a TGI (BT-549 breast) of 32.3 µM, a TGI (CAKI-1 renal) of 36.5 µM and a TGI (CCRF-CEM leukemia) of over 100 µM. It also gave a TGI (COLO 205 colon) of 39.8 µM, a TGI (DU-145 prostate) of over 100 µM and a TGI (EKVX NSCLC) of 41.4 µM. For the same compound, the TGI (HCC-2998 colon) was 30.8 µM, the TGI (HCT-116 colon) was 40.9 µM and the TGI (HCT-15 colon) was 30.1 µM. The TGI (HL-60(TB) leukemia) was over 100 µM, the TGI (HOP-62 NSCLC) was over 100 µM and the TGI (HS 578T breast) was 44 µM. The TGI (HT29 colon) was 35.7 µM, the TGI (IGROV1 ovarian) was 40.2 µM and the TGI (K-562 leukemia) was over 100 µM. It also gave a TGI (KM12 colon) of 30.4 µM, a TGI (LOX IMVI melanoma) of 39.9 µM and a TGI (M14 melanoma) of 31 µM. For the same compound, the TGI (MALME-3M melanoma) was 34.4 µM, the TGI (MCF7 breast) was 32 µM and the TGI (MDA-MB-231 breast) was 38.4 µM. The TGI (MDA-MB-435) was over 100 µM, the TGI (MDA-N) was 31 µM and the TGI (MOLT-4 leukemia) was 43.5 µM. It also gave a TGI (NCI-H226 lung) of over 100 µM, a TGI (NCI-H23 lung) of 85.2 µM and a TGI (NCI-H460 lung) of 28.1 µM. The TGI (NCI/ADR-RES ovarian) was 46.6 µM, the TGI (OVCAR-3 ovarian) was 31.7 µM and the TGI (OVCAR-4 ovarian) was 33.9 µM. For the same compound, the TGI (OVCAR-5 ovarian) was 33.3 µM, the TGI (OVCAR-8 ovarian) was over 100 µM and the TGI (PC-3 prostate) was over 100 µM. For the same compound, the TGI (RPMI-8226 leukemia) was over 100 µM, the TGI (RXF 393 renal) was 69.3 µM and the TGI (SF-268 CNS) was 35.4 µM. For the same compound, the TGI (SF-295 CNS) was over 100 µM, the TGI (SK-MEL-2 melanoma) was over 100 µM and the TGI (SK-MEL-28 melanoma) was 37.5 µM. The TGI (SK-MEL-5 melanoma) was over 100 µM, the TGI (SK-OV-3 ovarian) was over 100 µM and the TGI (SN12C renal) was 36.6 µM. For the same compound, the TGI (SNB-19 CNS) was over 100 µM, the TGI (SNB-75 CNS) was over 100 µM and the TGI (SR leukemia) was 65.5 µM. The TGI (SW-620 colon) was 36.2 µM, the TGI (T-47D breast) was 45.1 µM and the TGI (TK-10 renal) was 26.7 µM. For the same compound, the TGI (U251 CNS) was over 100 µM, the TGI (UACC-257 melanoma) was 47.8 µM and the TGI (UACC-62 melanoma) was 32 µM. It also gave a TGI (UO-31 renal) of 35.8 µM.
Work on `Nc1nc(N)c2ncn(-c3ccc(Br)cc3)c2n1` yielded a TGI (786-0 renal) of over 100 µM, a TGI (A498 renal) of over 61.9 µM and a TGI (A549 NSCLC) of over 100 µM. The TGI (ACHN renal) was over 52.8 µM, the TGI (BT-549 breast) was over 100 µM and the TGI (CAKI-1 renal) was over 45.3 µM. The TGI (CCRF-CEM leukemia) was 34.7 µM, the TGI (COLO 205 colon) was over 100 µM and the TGI (DU-145 prostate) was over 100 µM. For the same compound, the TGI (EKVX NSCLC) was 88.4 µM, the TGI (HCC-2998 colon) was over 100 µM and the TGI (HCT-116 colon) was over 100 µM. It also gave a TGI (HCT-15 colon) of over 100 µM, a TGI (HOP-62 NSCLC) of over 59.8 µM and a TGI (HOP-92 NSCLC) of over 38.1 µM. The TGI (HS 578T breast) was 25.3 µM, the TGI (HT29 colon) was over 45.6 µM and the TGI (IGROV1 ovarian) was 41.5 µM. For the same compound, the TGI (K-562 leukemia) was 38.3 µM, the TGI (KM12 colon) was over 45.7 µM and the TGI (LOX IMVI melanoma) was over 100 µM. The TGI (M14 melanoma) was over 69.2 µM, the TGI (MALME-3M melanoma) was over 44.9 µM and the TGI (MCF7 breast) was over 57.1 µM. The TGI (MDA-MB-231 breast) was over 86.1 µM, the TGI (MDA-MB-435) was over 100 µM and the TGI (MDA-N) was over 100 µM. It also gave a TGI (MOLT-4 leukemia) of 37.3 µM, a TGI (NCI-H226 lung) of over 100 µM and a TGI (NCI-H23 lung) of over 93.2 µM. For the same compound, the TGI (NCI-H460 lung) was over 100 µM, the TGI (NCI-H522 lung) was over 42.5 µM and the TGI (NCI/ADR-RES ovarian) was 50.8 µM. For the same compound, the TGI (OVCAR-3 ovarian) was over 64 µM, the TGI (OVCAR-4 ovarian) was over 100 µM and the TGI (OVCAR-5 ovarian) was over 73.1 µM. The TGI (OVCAR-8 ovarian) was over 55.7 µM, the TGI (PC-3 prostate) was over 65 µM and the TGI (RPMI-8226 leukemia) was over 56.1 µM. For the same compound, the TGI (RXF 393 renal) was over 78.6 µM, the TGI (SF-268 CNS) was over 63.8 µM and the TGI (SF-295 CNS) was over 100 µM. It also gave a TGI (SF-539 CNS) of 46.5 µM, a TGI (SK-MEL-2 melanoma) of 41.5 µM and a TGI (SK-MEL-28 melanoma) of over 100 µM. It also gave a TGI (SK-MEL-5 melanoma) of over 100 µM, a TGI (SK-OV-3 ovarian) of 73.9 µM and a TGI (SN12C renal) of 75.6 µM. For the same compound, the TGI (SNB-19 CNS) was over 100 µM, the TGI (SNB-75 CNS) was 31.2 µM and the TGI (SR leukemia) was 3.2 µM. The TGI (SW-620 colon) was over 100 µM, the TGI (T-47D breast) was over 100 µM and the TGI (TK-10 renal) was over 100 µM. It also gave a TGI (U251 CNS) of over 100 µM, a TGI (UACC-257 melanoma) of over 100 µM and a TGI (UACC-62 melanoma) of over 66.8 µM. For the same compound, the TGI (UO-31 renal) was over 50.6 µM.
